Reference: ChEMBL document CHEMBL5608109, “Hepatotoxicity screening of Donated Chemical Probes” (2024)
Counter-ions that a name gives are not always drawn. Where a SMILES comes first, the peptide text is derived from it. [ ]: non-standard residue; d: D form. Arg(Me) = CNC(=N)NCCC[C@H](N)C(=O)O; d4Pal = N[C@H](Cc1ccncc1)C(=O)O; azaGly = NNC(=O)O

Tested on: Hepatocyte spheroids
Assay: This assay model using primary human hepatocyte (PHH) spheroids, which are cultured in Williams E medium. After spheroid formation, cells are exposed to compounds in an FBS-free culture medium. […] Imaging is performed on an Opera Phenix High-Content Screening System, allowing quantification of proliferation as a readout for evaluating the effects of chemical probes on hepatocyte regeneration.
Format: functional
Settings: read-out: Cell Viability; for viability at 0.1 µM: Concentration 0.1 uM; for viability at 1 µM: Concentration 1 uM; for viability at 10 µM: Concentration 10 uM

Structure (SMILES)	viability at 0.1 µM	viability at 1 µM	viability at 10 µM	viability at 20 µM (Concentration 20 uM)
O=S(=O)(NC1CCC(c2cc(F)ccc2F)(S(=O)(=O)c2ccc(Cl)cc2)CC1)C(F)(F)F (stereo unspecified) [MRK-560]	101% (non-toxic)	76.1% (non-toxic)	–	–
O=c1nc(-c2ccccn2)sc2ccccc12 [BTZO-1]	–	99.7% (non-toxic)	73.5% (non-toxic)	–
Cc1cc(Nc2nccc(C)n2)cc(-c2cnc([C@@]3(O)CC[C@H](C(=O)O)C(C)(C)C3)s2)c1 [MRL-SYKi]	98.8% (non-toxic)	95.5% (non-toxic)	–	–
Cc1c(N2CCCC2)nc2ccc(Br)cc2c1C(=O)NC[C@H](CCC(=O)O)c1ccccc1Cl [BAY-6672]	–	106% (non-toxic)	111% (non-toxic)	–
c1ccc2oc(-c3csc(C4CCN(Cc5nc6ncccc6[nH]5)CC4)n3)cc2c1	–	88.5% (non-toxic)	35.4% (toxic)	–
CNC(=N)NCCC[C@H](NC(=O)[C@H](CC(C)C)NC(=O)NNC(=O)[C@H](Cc1ccccc1)NC(=O)[C@H](CO)NC(=O)[C@H](CC(N)=O)NC(=O)[C@@H](Cc1ccncc1)NC(=O)[C@H](N)Cc1ccc(O)cc1)C(=O)N[C@@H](Cc1ccccc1)C(N)=O [KISS1-305] (H-[dY][d4Pal]NSF[azaGly]L[Arg(Me)]F-NH2)	107% (non-toxic)	98.4% (non-toxic)	–	–
CC(=O)Nc1c(C(C)=O)c(=O)n(C)c2nc(-c3ccc(Cl)cc3Cl)c(-c3ccc(Cl)cc3)cc12 [NAPHTHYRIDINONE]	–	117% (non-toxic)	121% (non-toxic)	–
C[C@@H]1CN(c2cc(-c3n[nH]c4ccc(OC5(C)CC5)cc34)ncn2)C[C@H](C)O1 [MLi-2]	79.3% (non-toxic)	79.7% (non-toxic)	–	–
CCS(=O)(=O)c1cc2cc(C[C@](O)(CC(C)(C)c3ccc(F)cc3C(N)=O)C(F)(F)F)[nH]c2cn1 [BI 653048]	–	116% (non-toxic)	116% (non-toxic)	–
CNC(=O)c1cc(C(=O)N[C@H]2[C@@H]3COC[C@@H]32)cc2c1O[C@H](CF)[C@H]2c1ccccc1 [GSK973]	–	103% (non-toxic)	88.7% (non-toxic)	–
CCCCN(CCCC)C(=O)CN1C[C@H](c2cc(OC)c3c(c2)OCO3)[C@@H](C(=O)O)[C@@H]1CC(C)(C)CCC	107% (non-toxic)	83.6% (non-toxic)	–	–
CS(=O)(=O)N1CCCC(NC(=O)[C@H](CCC2CCCCC2)NC(=O)c2ccc(CNC(=O)c3cnc4ccccn34)cc2)C1 (stereo partly specified) [SR-302]	134% (non-toxic)	128% (non-toxic)	–	–
COCCc1ccc(-c2c(C)nc3c(N4CCOCC4)ccnn23)cn1 [JNJ-42396302]	–	158% (non-toxic)	160% (non-toxic)	–
CN(C)C(=O)Cn1cc(-c2nc([C@@](C)(c3ccc(-c4cnc(N)nc4)cc3)C3CC3)no2)cn1 [BI 665915]	104% (non-toxic)	84.4% (non-toxic)	–	–
C[C@H](c1ccc(F)cc1)N(Cc1cccc(C(=O)O)c1)C(=O)c1cnc2ccccc2c1 [PF-05105679]	–	126% (non-toxic)	120% (non-toxic)	–
CC[C@H](CC(=O)O)n1c(=O)c2ncccc2n(Cc2cn(C)c3cc(C)cc(C)c23)c1=O [BI-1942]	–	53.2% (toxic)	65.2% (toxic)	–
N#CN1CC[C@H](C(=O)Nc2nc3c(s2)CN(C(=O)CN=[N+]=[N-])CC3)C1 [8RK64]	–	97.6% (non-toxic)	70.7% (toxic)	–
CC(=O)C1=C(C)N(c2cccc(C(F)(F)F)c2)C(=O)N[C@@H]1c1ccc(C#N)nc1 [BAY-678]	–	139% (non-toxic)	132% (non-toxic)	–
CNC(=O)c1cc(C(=O)NC2CC2)cn(Cc2ccccc2)c1=O [GSK620]	–	117% (non-toxic)	85.9% (non-toxic)	–
CN(C)CC#Cc1ccc(OCCCc2sc(N3CCc4cccc(C(=O)Nc5nc6ccccc6s5)c4C3)nc2C(=O)O)c(F)c1 [A-1155463]	–	120% (non-toxic)	117% (non-toxic)	–
CN1C(=O)[C@@H](N2CCc3c(nn(Cc4ccccc4)c3Br)C2=O)COc2ccccc21 [TP-030-2]	69.5% (toxic)	56.7% (toxic)	–	–
CC(=O)N1CCC(c2ccc(C(=O)NC(=N)N)cc2C(F)(F)F)CC1 [BI 9627]	–	78.4% (non-toxic)	106% (non-toxic)	–
CC(=O)Nc1c(F)cc(C(=O)N[C@H]2CC[C@H](O)CC2)cc1O[C@@H](C)c1ccccc1 [GSK046]	–	96.7% (non-toxic)	85.2% (non-toxic)	–
O=C(NNS(=O)(=O)c1ccccc1F)c1cc(F)cc(-c2ccccn2)c1 [WM-1119]	–	107% (non-toxic)	75.2% (non-toxic)	–
CC1CCN(c2ccnc(NCc3cn(C)cn3)n2)CC1 [TP-040]	–	127% (non-toxic)	133% (non-toxic)	–
CN(C)CCCN1c2ccccc2Sc2ccc(Cl)cc21 [CHLORPROMAZINE HYDROCHLORIDE]	–	–	–	0.683% (toxic)

Structure (SMILES)	viability at 0.1 µM	viability at 1 µM	viability at 10 µM	viability at 20 µM (Concentration 20 uM)
O=C(N1CCS(=O)(=O)CC1)N1C[C@H](c2ccc(OC(F)(F)F)cc2)C[C@H](c2nc(C3CC3)no2)C1 [BAY-386]	–	121% (non-toxic)	111% (non-toxic)	–
CCC(=O)N[C@H]1CC[C@@H](C(=O)N(C)c2ccc(-c3nc4ccccc4o3)cc2)C1 [BI 99179]	–	81.6% (non-toxic)	55.6% (toxic)	–
N#CC1(c2ccccn2)CCN(Cc2cc(C(=O)O)c(=O)n3ccccc23)CC1 [MSD-M1PAM]	–	112% (non-toxic)	87.1% (non-toxic)	–
CN(C)[C@@H]1CCN(c2cc(-c3ccccc3)nc3ccnn23)C1 [(R)-ZINC-3573]	–	111% (non-toxic)	95.8% (non-toxic)	–
CO[C@@H](C)c1c(Nc2ccc([C@H](N(C)C(=O)C3CCS(=O)(=O)CC3)C(F)(F)F)cc2)cnc2cc(Cl)nn12 [NVS-MALT1]	–	99.7% (non-toxic)	33.9% (toxic)	–
O[C@]1(C(F)(F)F)CCCC[C@H]1Nc1ccc(F)cc1 [BAY-390]	99.2% (non-toxic)	96.9% (non-toxic)	–	–
CO[C@H]1CC[C@H](CNc2ccc(S(=O)(=O)NC(=O)c3ccc(N4CCN(CC5=C(c6ccc(Cl)cc6)CC(C)(C)CC5)CC4)cc3Oc3cnc4[nH]ccc4c3)cc2[N+](=O)[O-])CC1 [A-1211212]	–	130% (non-toxic)	126% (non-toxic)	–
Cn1nc(C(F)(F)F)cc1-c1cnc(N2CCc3cc(S(=O)(=O)Nc4c(F)cc(Cl)cc4F)cc(N4CCCC4=O)c32)nc1 [TP-020]	–	121% (non-toxic)	120% (non-toxic)	–
Clc1cccc(-c2nnnn2Cc2cccnc2)c1Cl	–	97.1% (non-toxic)	98.7% (non-toxic)	–
C[C@H](c1ccnc(Nc2nc3ccc(-c4cc(N(C)C)ncn4)cc3[nH]2)c1)N1CCN(C(=O)CC(F)(F)F)CC1 [BAY-985]	–	68.2% (non-toxic)	38.1% (toxic)	–
O=C1CCc2cc(Nc3cc(OC4CCOCC4)c([N+](=O)[O-])cc3Cl)ccc2N1	–	147% (non-toxic)	76% (non-toxic)	–
Cc1cc(C)c(-n2ccn3nc(-c4cccnc4)cc23)cc1NC(=O)c1cc(C#N)cc(S(F)(F)(F)(F)F)c1 [BAY-826]	149% (non-toxic)	144% (non-toxic)	–	–
Cc1cc(-n2nc(Cc3cc(F)cc(C(F)(F)F)c3)nc2C)ccc1C(N)=O [TP-024]	–	111% (non-toxic)	92% (non-toxic)	–
Cc1cc2c(-c3ccco3)cnc(N[C@@H]3CCN(C)C[C@H]3C(=O)NC3CCCCC3)c2[nH]c1=O [GSK789]	–	52.2% (toxic)	27.6% (toxic)	–
CCOc1ccc(S(=O)(=O)Nc2ccc(Cl)cc2C#Cc2cnc(C(=O)O)cc2OC)c2ncccc12	–	91.1% (non-toxic)	17.2% (toxic)	–
Cn1c(C2(NC(=O)c3ccc4c(C5CCCC5)c(-c5ncc(Br)cn5)n(C)c4c3)CCC2)nc2ccc(/C=C/C(=O)O)cc21 [DELEOBUVIR]	–	135% (non-toxic)	157% (non-toxic)	–
COc1ccc2cc(OCC3(C(=O)O)CN(C(=O)c4ccc(F)cc4)C3)ccc2c1 [PF-04418948]	157% (non-toxic)	153% (toxic)	–	–
C[C@@H](NC(=O)Nc1cc2[nH]ncc2c(CO)n1)c1ccccc1 [ERKi]	–	75% (non-toxic)	75.2% (non-toxic)	–
c1ccc(N2CCN(Cc3nc4ccccc4[nH]3)CC2)nc1	–	117% (non-toxic)	110% (non-toxic)	–
Nc1nc(NCc2ccccc2)nc(-c2ccccc2CO)n1 [Ogerin]	–	94.3% (non-toxic)	115% (non-toxic)	–
CC(=O)Nc1ncc(CN2CCC[C@H](Cc3cc(C)nc(C)c3)C2)s1 [JNJ-65355394]	–	149% (non-toxic)	142% (non-toxic)	–
COc1nc2ccc([C@@](O)(c3ccccc3)C3CCN(C(C)=O)CC3)cc2c(Cl)c1Cc1ccc(-n2cccn2)cc1 [JNJ-54119936]	–	116% (non-toxic)	114% (non-toxic)	–
CCc1ccccc1C(=O)Nc1n[nH]c2c(C)c(F)c(C3C(C#N)=C(C)N(C)C(C)=C3C#N)cc12 [BAY-3827]	–	110% (non-toxic)	84.2% (non-toxic)	–
C=CC(=O)Nc1ccc2[nH]c(=O)n(C3CCN(Cc4ccc(-c5nc6cc[nH]c(=O)c6cc5-c5ccccc5)cc4)CC3)c2c1 [Borussertib]	–	48.8% (toxic)	16% (toxic)	–
COc1ccc2c(O[C@@H]3C[C@H]4C(=O)N[C@]5(C(=O)O)CC5/C=C\CCCCC[C@H](NC(=O)OC5CCCC5)C(=O)N4C3)cc(-c3csc(NC(=O)C(C)C)n3)nc2c1C (stereo partly specified) [BI 1230]	–	106% (non-toxic)	0.711% (toxic)	–
